Experimental data from patent US20220290200A1, “GENETICALLY MODIFIED HOST CELLS PRODUCING GLYCOSYLATED CANNABINOIDS” (OCTARINE BIO IVS, priority 2019, published 2022).
Read-outs that look alike come from different tables or passages of the source.

Test: Caco-2 bi-directional permeability assay
Format: in vitro ADME, human
Conditions: human
Experimental: Intestinal permeability of cannabinoids and glycosylated cannabinoids was determined by measuring bi-directional transport across Caco-2 cell membranes. Caco-2 cells are used as an in vitro model of the human intestinal epithelium and permit assessment of the intestinal permeability of potential drugs. The test compound is added to either the apical or basolateral side of a confluent monolayer of Caco-2 cells and permeability is measured by monitoring the appearance of the test compound on the opposite side of the monolayer using LC-MS/QTOF. When performing a bi-directional assay, the efflux ratio (ER) is calculated from the ratio of B−A and A−B permeabilities. Caco-2 cells obtained from the ATCC are used between passage numbers 40-60. Cells are seeded onto Millipore Multiscreen Transwell plates at 1×10^5 cells/cm2. The cells are cultured in DMEM and media is changed every two or three days. On day 20 the permeability study is performed. Cell culture and assay incubations are carried out at 37° C. in an atmosphere of 5% CO2 with a relative humidity of 95%. On the day of the assay, the monolayers are prepared by rinsing both apical and basolateral surfaces twice with Hanks Balanced Salt Solution (HBSS) at the desired pH warmed to 37° C. Cells are then incubated with HBSS at the desired pH in both apical and basolateral compartments for 40 min to stabilize physiological parameters. 10 mM solutions of cannabinoids and cannabinoid glycosides are prepared in DMSO then diluted with assay buffer to give a final test compound concentration of 10 μM (final DMSO concentration of 1% v/v). The fluorescent integrity marker lucifer yellow is also included in the solution.
Analytical standards are prepared from test compound DMSO dilutions and transferred to buffer, maintaining a 1% v/v DMSO concentration. For assessment of A−B permeability, HBSS is removed from the apical compartment and replaced with test compound solution. The apical compartment insert is then placed into a companion plate containing fresh buffer (containing 1% v/v DMSO). For assessment of B−A permeability, HBSS is removed from the companion plate and replaced with test compound solution. Fresh buffer (containing 1% v/v DMSO) is added to the apical compartment insert, which is then placed into the companion plate. At 120 min the apical compartment inserts and the companion plates are separated and apical and basolateral samples diluted for analysis. Test compound permeability is assessed in duplicate. Compounds of known permeability characteristics are run as controls on each assay plate. Test and control compounds are quantified by LC-MS/QTOF as described above. The starting concentration (C0) is determined from the solution and the experimental recovery calculated from C0 and both apical and basolateral compartment concentrations. The integrity of the monolayer throughout the experiment is checked by monitoring lucifer yellow permeation using fluorometric analysis. The permeability coefficient (Papp) for each compound is calculated from the following equation: Papp=(dQ/dt)/(C0×A) Where dQ/dt is the rate of permeation of the drug across the cells, C0 is the donor compartment concentration at time zero and A is the area of the cell monolayer. C0 is obtained from analysis of the dosing solution. The efflux ratio (ER) is calculated from mean Papp values from A−B and B−A data. This is derived from: ER=Papp(B−A)/Papp(A−B). The % recovery is calculated from the following equation; % recovery=(Total compound in donor and receiver compartment at end of experiment)/(initial compound present)×100.
CBD glycosides were produced using glycosyl transferases and purified as described above. […] Low recovery of compound in a Caco-2 permeability assay can indicate problems with poor solubility, binding of the compound to the plate, metabolism by the Caco-2 cells or accumulation of the compound in the cell monolayer.

Structure (SMILES): C=C(C)[C@@H]1CCC(C)=C[C@H]1c1c(O)cc(CCCCC)cc1O [CBD, cannabidiol, reference compound]
- recovery at 120 min, 10 μM (Caco-2, apical to basolateral, 120 min, read-out: Mean recovery (%), Direction A→B): 16.4%
- recovery at 120 min, 10 μM (Caco-2, basolateral to apical, 120 min, read-out: Mean recovery (%), Direction B→A): 48.8%
- Papp A→B at 120 min, 10 μM (Caco-2, apical to basolateral, 120 min, mean and standard deviation of duplicates, read-out: Mean Papp, Direction A→B): 0.61 ± 0.03 ×10⁻⁶ cm/s
- Papp B→A at 120 min, 10 μM (Caco-2, basolateral to apical, 120 min, mean and standard deviation of duplicates, read-out: Mean Papp, Direction B→A): 1.45 ± 0.64 ×10⁻⁶ cm/s
- efflux ratio at 120 min, 10 μM (Caco-2, ratio of B−A and A−B permeabilities): 2.37
